The target of this test is T1, Taste receptor type 2 member 46 (Homo sapiens) (UniProt P59540).
T1 sequence (whole entry): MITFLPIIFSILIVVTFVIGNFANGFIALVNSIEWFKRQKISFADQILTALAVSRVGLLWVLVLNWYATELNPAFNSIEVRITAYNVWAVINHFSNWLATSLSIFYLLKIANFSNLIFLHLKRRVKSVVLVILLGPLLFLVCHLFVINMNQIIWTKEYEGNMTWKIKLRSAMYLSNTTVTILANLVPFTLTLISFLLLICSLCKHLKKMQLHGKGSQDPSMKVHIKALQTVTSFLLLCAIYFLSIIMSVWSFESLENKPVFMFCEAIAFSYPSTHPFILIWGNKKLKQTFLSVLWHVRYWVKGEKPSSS
As to the kind of experiment: Agonist activity human TAS2R46 transiently expressed in HEK293T/Galpha16-gustducin 44 cells assessed as effect on calcium flux by measuring deltaF/F0 ratio by Fluo-4-AM dye based FLIPR assay. Format: functional, cell-based. (Calcium assays in cells follow changes in intracellular calcium, usually with a dye or a luminescent sensor.)

The structures appear in SMILES notation.

`COc1ccc2c(c1)[C@]13CCCC[C@@H]1[C@H](C2)N(C)CC3`: the Activity result was “Dose-dependent effect”.

(Values after ChEMBL document CHEMBL4421729 (2013).)
